Data set [1] concerns P. aeruginosa. More on the design: method as in PMID 35052908, PMID 35740123. Conditions: against P. aeruginosa; cited from earlier work.
Data set [2] relates to P. aeruginosa. Nature of the data set: MIC potentiation of antimicrobial agents by EPIs. The class given is cell-based, Pseudomonas aeruginosa. Conditions: 1/16 MIC. Here is the method: In contrast, the activities of gentamicin and imipenem were unchanged in the presence of TXA11114 under the conditions tested. Although gentamicin can be transported by the MexXY efflux system, the absence of potentiation in this assay is not sufficient to draw conclusions regarding MexXY inhibition or overall efflux specificity.
MIC assays for potentiation of antimicrobial activity against P. aeruginosa were performed as described previously.

Data set [3] relates to P. aeruginosa ATCC 27853. The data set can be described thus: Nitrocefin assay for outer-membrane permeabilization. The class given is cell-based, Pseudomonas aeruginosa. An excerpt: The significant toxicity of previously identified EPIs has prevented their clinical use. So, understanding the TXA11114 mechanism of action (MoA) was of paramount importance to eliminate off-target effects that may arise from other activities besides efflux pump inhibition. Historically EPIs are known to augment the action of traditional antibiotics by compromising the integrity of bacterial membranes, allowing increased drug accumulation. One of the major concerns of earlier EPIs was their ability to disrupt bacterial membranes. Two approaches were taken to investigate if membrane disruption played a role in the potentiation of antibiotics seen in Table 2 by TXA11114: (1) a flow cytometry-based propidium iodide (PI) assay to monitor inner-membrane permeabilization, and (2) a nitrocefin (NCF) assay to monitor outer-membrane permeabilization. NCF is a chromogenic cephalosporin that changes from yellow to red when the amide bond in the β-lactam ring is hydrolyzed by a β-lactamase. The rate of hydrolysis in intact cells is slow, as it is limited by the rate of diffusion of […]. […] Cells with intact membranes exclude PI and remain non-fluorescent, while cells with compromised membrane integrity allow PI to enter and bind to DNA, resulting in fluorescence. […]

Data set [4] concerns P. aeruginosa ATCC 27853. The data set can be described thus: Ethidium bromide efflux inhibition. The class given is cell-based, Pseudomonas aeruginosa.
Excerpt: In the first assay, the efflux of ethidium bromide (EtBr) by P. aeruginosa cells is studied in the presence of different concentrations of TXA11114.
Data set [5] has as its system P. aeruginosa DA7232. Nature of the data set: Levofloxacin accumulation assay. In kind it is cell-based, Pseudomonas aeruginosa. Conditions: vs vehicle-treated controls. Here is the method:
The bacterial culture samples were treated on ice for 15 min, centrifuged, washed with PBSMG (1X PBS, 1 mM MgCl2, 100 mM glucose) and then resuspended in 1 mL of glycine-HCl buffer (pH 3.0) overnight for cell lysis, followed by centrifugation. The fluorescence of 100 µL of supernatant was read at 490 nm following a 355 nm excitation in a SpectraMax iD5 spectrophotometer (Molecular Devices, San Jose, CA, USA).

Data set [6] concerns P. aeruginosa AR-0232. The data set can be described thus: Time-kill study. Conditions: levofloxacin 1X-MIC + TXA11114, by 24 h. In kind it is cell-based, Pseudomonas aeruginosa. The procedure: (§1) Time-kill studies were carried out as described previously with the following changes.
Data set [7] deals with P. aeruginosa ATCC 27853. Nature of the data set: Time-kill study. The class given is cell-based, Pseudomonas aeruginosa. Conditions: levofloxacin 1X-MIC + TXA11114. The procedure:
as §1

Data set [8] is described as follows: Plasma protein binding (equilibrium dialysis). In kind it is in vitro ADME. Here is the method: Plasma protein binding was determined experimentally using equilibrium dialysis, with compound concentrations in plasma and buffer quantified by LC-MS/MS.
On the technique in general: In equilibrium dialysis free small molecules cross a membrane that holds back macromolecules.

A short description of data set [9]: Plasma stability. The class given is in vitro ADME, human. The procedure:
(§2) Plasma stability was assessed by incubating the compound in plasma at 37 °C and monitoring parent compound disappearance over time by LC-MS/MS. Half-life values were calculated assuming first-order kinetics.

Data set [10] can be described thus: Plasma stability. The class given is in vitro ADME. Conditions: read-out: Plasma stability t1/2. The procedure: as §2
Data set [11] is described as follows: Microsomal stability. In kind it is in vitro ADME, human. Conditions: pH 7.4. The procedure: (§3) The metabolic stability of TXA11114 was evaluated in liver microsomes from human (HLM), dog (DLM), rat (RLM), and mouse (MLM). Test compound disappearance over time was monitored by LC-MS/MS. Verapamil (HLM and RLM) and imipramine (DLM and MLM) were used as positive controls. […] Aliquots (70 µL) were transferred to 96-well reaction plates and pre-incubated at 37 °C for 5 min. Reactions were initiated by adding 30 µL NADPH (final concentration 1 mM). Control incubations lacking NADPH were included to assess non-enzymatic degradation. Reactions were terminated at 0, 5, 15, 30, and 60 min by the addition of 100 µL ice-cold acetonitrile containing glipizide as an internal standard.

Data set [12] in a line: Microsomal stability. The class given is in vitro ADME. The note with it: rat, liver microsomes, pH 7.4; read-out: Microsome Stability t1/2. The procedure:
as §3

Like-named read-outs stand apart in the source and are kept apart here.

In the case of `NC[C@@H]1CN[C@H](CNC(=O)c2cc3ccc(-c4ccc(F)cc4)cc3[nH]2)C1` [TXA09155], the “Lowest concentration enhancing activity of monobactams, fluoroquinolones, sulfonamides and tetracyclines” value in data set [1] is 6.25 µg/mL.

For the compound `NCC(F)C[C@@H](N)CNC(=O)c1cc2ccc(-c3ccc(F)cc3)cc2[nH]1` (stereo partly drawn) [TXA11114, N-((2R)-2,5-diamino-4-fluoropentyl)-6-(4-fluorophenyl)-1H-indole-2-carboxamide], in [2], the “Lowest effective concentration for potentiation” value worked out at 6.25 µg/mL. Besides, the “Concentrations at which impact on NCF hydrolysis is minimal” value in data set [3] is listed as “below 25 μg/mL”. Besides, in data set [4] (elevated inoculum of EtBr assay (approximately 1000-fold greater)), the “Minimal potentiation concentration (MPC)” value worked out at 12.5 µg/mL. In addition, the “EtBr efflux blockade (fluorescence)” value in [4] (increasing TXA11114 concentration) is “fluorescence intensity increased proportionally”. For the same compound, the Intracellular levofloxacin accumulation entry in data set [5] is “marked increase in intracellular levofloxacin accumulation”. For the same compound, the “Reduction in time-kill with levofloxacin” value in data set [6] was at least 3 log10; in [7], “more modest but reproducible reductions”. The fraction unbound in data set [8] (dog) is 0.011; in [8] (human, across the four species tested, read-out: Plasma protein binding) it was 0.01 to 0.02; in data set [8] (human, read-out: Protein Binding), 0.01; in data set [8] (mouse) it was 0.011; in [8] (rat), 0.015. The half-life in data set [9] (across four species (human, dog, rat, and mouse), read-out: Plasma stability half-life) was above 120 min; in [9] (human, read-out: Plasma stability t1/2), above 120 min; in data set [10] (dog) it was above 120 min; in data set [10] (mouse), above 120 min; in data set [10] (rat) it was above 120 min. For the same compound, the half-life at 1 µM in data set [11] (human, liver microsomes, read-out: Microsome Stability t1/2) is above 60 min; in data set [11] (human and rat liver microsomes, read-out: Microsomal stability half-life) it was above 60 min; in [12], above 60 min.

Values taken from article PMC13114161 (Antibiotics, 2026).
